Data reported in PubChem BioAssay (NCI).
Several values for one entry are separate records, joined by “and”; a condition that tells them apart may be missing. Identical values can stand only once.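 Results reflect a 48-hour exposure of cells in 96-well plates to compound at five concentrations. The concentration for 50% growth inhibition is given as GI50. TGI marks complete inhibition of growth.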

Key:
Assay in all cases: NCI-60 cell line screen, 48 h
[1] = test system: UACC-257 melanoma
[2] = test system: SF-295 CNS
[3] = test system: HOP-92 NSCLC
[4] = test system: TK-10 renal
[5] = test system: 786-0 renal
[6] = test system: PC-3 prostate
[7] = test system: K-562 leukemia
[8] = test system: NCI-H23 lung
[9] = test system: KM12 colon

**Q.** For `Cc1ccc([N+](=O)[O-])c2c(NCC(O)CO)ccnc12` (configuration not stated), which TGI [1] is on record?
**A.** > 100 µM

**Q.** What about the TGI [2] of the same compound?
**A.** 73.9 µM

**Q.** And the TGI [3]?
**A.** > 100 µM

**Q.** What about the TGI [4] of the same compound?
**A.** > 100 µM

**Q.** What about the TGI [5] of the same compound?
**A.** > 100 µM

**Q.** And the TGI [6]?
**A.** > 100 µM

**Q.** What about the TGI [7] of the same compound?
**A.** > 100 µM

**Q.** What about the TGI [8] of the same compound?
**A.** > 100 µM

**Q.** What about the TGI [9] of the same compound?
**A.** > 100 µM

**Q.** `Oc1ccc(Cl)cc1C1=NC(/N=C\c2ccccc2)=NC(c2ccccc2)C1` (configuration not stated) was tested. Which TGI [1] did it give?
**A.** > 100 µM

**Q.** What about the TGI [2] of the same compound?
**A.** > 100 µM

**Q.** And the TGI [3]?
**A.** > 100 µM

**Q.** And the TGI [4]?
**A.** > 100 µM

**Q.** What about the TGI [5] of the same compound?
**A.** > 100 µM

**Q.** And the TGI [6]?
**A.** > 100 µM

**Q.** What about the TGI [7] of the same compound?
**A.** > 100 µM

**Q.** What about the TGI [8] of the same compound?
**A.** > 100 µM

**Q.** And the TGI [9]?
**A.** > 100 µM

**Q.** What does the source list for `COc1cc(Br)c(CC2C3=C(CCN2C(=O)C2CCC2)CC(=O)CC3)cc1O` (configuration not stated)?
**A.** TGI [1]: > 100 µM; TGI [2]: > 100 µM; TGI [3]: 53.6 µM; TGI [4]: > 100 µM; TGI [5]: 95.8 µM; TGI [6]: > 100 µM; TGI [7]: 81.3 µM; TGI [8]: 51.9 µM; TGI [9]: 73.3 µM

**Q.** With `CN(C)/N=N/c1nc[nH]c1C(N)=O` as the compound, how does the GI50 [1] read?
**A.** 225 µM

**Q.** What about the TGI [1] of the same compound?
**A.** > 1000 µM

**Q.** And the GI50 [2]?
**A.** 44 µM

**Q.** What about the TGI [2] of the same compound?
**A.** > 1000 µM

**Q.** What about the GI50 [3] of the same compound?
**A.** 74 µM

**Q.** What about the TGI [3] of the same compound?
**A.** 87.1 µM and 796 µM

**Q.** What about the GI50 [4] of the same compound?
**A.** 46.8 µM

**Q.** What about the TGI [4] of the same compound?
**A.** 828 µM

**Q.** What about the TGI [5] of the same compound?
**A.** > 1000 µM

**Q.** What about the GI50 [6] of the same compound?
**A.** 77.2 µM

**Q.** And the TGI [6]?
**A.** > 1000 µM

**Q.** And the GI50 [7]?
**A.** 39 µM

**Q.** What about the GI50 [9] of the same compound?
**A.** > 156000 nM

**Q.** What about the TGI [9] of the same compound?
**A.** > 1000 µM

**Q.** What does the source list for `Cn1c(O)c(C=Nc2ccccc2Cl)c(=O)n(C)c1=O`?
**A.** TGI [1]: > 100 µM; TGI [2]: 80.5 µM; TGI [3]: > 100 µM; TGI [4]: > 100 µM; TGI [5]: 37.7 µM; TGI [6]: > 100 µM; TGI [7]: > 100 µM; TGI [8]: > 100 µM; TGI [9]: > 100 µM

**Q.** With `C=CCC(C(=O)Nc1cccc2[nH]cnc12)C(=O)OCC` (configuration not stated) as the compound, how does the TGI [1] read?
**A.** > 100 µM

**Q.** And the TGI [2]?
**A.** > 100 µM

**Q.** What about the TGI [3] of the same compound?
**A.** > 100 µM

**Q.** What about the TGI [4] of the same compound?
**A.** > 100 µM

**Q.** What about the TGI [5] of the same compound?
**A.** > 100 µM

**Q.** And the TGI [6]?
**A.** > 100 µM

**Q.** And the TGI [7]?
**A.** > 100 µM

**Q.** What about the TGI [9] of the same compound?
**A.** > 100 µM

**Q.** Which results are given for `C=C1CN(C2=NCCO2)C1`?
**A.** TGI [1]: > 100 µM; TGI [2]: > 100 µM; TGI [3]: > 100 µM; TGI [4]: > 100 µM; TGI [5]: > 100 µM; TGI [6]: > 100 µM; TGI [7]: > 100 µM; TGI [8]: > 100 µM; TGI [9]: > 100 µM

**Q.** For `CCOC(=O)/C=C(\C(=O)OCC)n1ccc(=O)[nH]c1=O`, which TGI [1] is on record?
**A.** 12.3 µM

**Q.** What about the TGI [2] of the same compound?
**A.** > 100 µM

**Q.** What about the TGI [3] of the same compound?
**A.** 9.04 µM

**Q.** And the TGI [4]?
**A.** 26.2 µM

**Q.** And the TGI [5]?
**A.** 18.5 µM

**Q.** What about the TGI [6] of the same compound?
**A.** 30.7 µM

**Q.** And the TGI [7]?
**A.** 19.1 µM

**Q.** And the TGI [8]?
**A.** 32.4 µM

**Q.** What about the TGI [9] of the same compound?
**A.** 35.2 µM

**Q.** Which TGI [1] does the source give for `COc1ccc(N2NC(c3ccccc3)(c3ccccc3)C(C)C2=O)cc1` (configuration not stated) here?
**A.** > 100 µM

**Q.** What about the TGI [2] of the same compound?
**A.** > 100 µM

**Q.** And the TGI [3]?
**A.** > 100 µM

**Q.** What about the TGI [4] of the same compound?
**A.** > 100 µM

**Q.** What about the TGI [6] of the same compound?
**A.** > 100 µM

**Q.** What about the TGI [7] of the same compound?
**A.** > 100 µM

**Q.** What about the TGI [8] of the same compound?
**A.** > 100 µM

**Q.** And the TGI [9]?
**A.** > 100 µM

**Q.** Which TGI [1] does the source give for `CN(Cc1cc(Cl)c(Cl)cc1NC(=O)CN)[C@H]1CCCC[C@@H]1N1CCCC1` here?
**A.** 31.7 µM

**Q.** What about the TGI [2] of the same compound?
**A.** 36.6 µM

**Q.** And the TGI [3]?
**A.** > 100 µM

**Q.** What about the TGI [4] of the same compound?
**A.** > 100 µM

**Q.** What about the TGI [5] of the same compound?
**A.** 33 µM

**Q.** What about the TGI [6] of the same compound?
**A.** > 100 µM

**Q.** What about the TGI [7] of the same compound?
**A.** 35.9 µM

**Q.** What about the TGI [8] of the same compound?
**A.** > 100 µM

**Q.** What about the TGI [9] of the same compound?
**A.** > 100 µM

**Q.** What does the source list for `COc1ccc(-c2nn(-c3ccc(NC(=O)Nc4ccc(Cl)c(C(F)(F)F)c4)cc3)cc2-c2ccncc2)cc1Cl`?
**A.** GI50 [1]: 1.94 µM; TGI [1]: 4.91 µM; GI50 [3]: 1.14 µM; TGI [3]: 3.84 µM; GI50 [4]: 1.41 µM; TGI [4]: 5.27 µM; GI50 [6]: 0.793 µM; TGI [6]: 5.49 µM; GI50 [7]: 1.25 µM; TGI [7]: 8.55 µM; GI50 [8]: 1770 nM; TGI [8]: 8.17 µM; GI50 [9]: 1220 nM; TGI [9]: 4.34 µM
